The results in this text go back to PubChem BioAssay AID179 (DTP/NCI, 2004).

Several values for one entry are separate records, joined by “and”; a condition that tells them apart may be missing. Identical values can stand only once. Activity calls are given as the source filed them.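 The calls were made as follows: active = compounds giving half or more protection of infected cells from virus-caused growth loss, again on retest; inactive = the rest.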 *1 amine or outer side, *2 acyl side, *3 side chain or, on linkers, in order; H or OH if unused. Where a SMILES comes first, the peptide text is derived from it. [ ]: non-standard residue; d: D form. ξ: configuration not given here. X15 = O=C([C@H]1CCC[C@H]1N[*:1])[*:2]; ξW = NC(Cc1c[nH]c2ccccc12)C(=O)O; ξF = NC(Cc1ccccc1)C(=O)O; ξK = NCCCCC(N)C(=O)O; ξT = CC(O)C(N)C(=O)O Some results are limits rather than exact numbers.

This experiment relates to CEM cells HIV-1 protection, formazan growth assay. As to the kind of experiment: NCI AIDS Antiviral Assay. As to conditions: for IC50: measured here: growth of uninfected CEM cells. A digest of the protocol:
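Screen of anti-HIV-1 activity in human CEM cells using a formazan-based growth measurement at five drug concentrations. Hits with 50% or greater protection were repeated, and confirmation required reproducible complete protection.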

The term EC50 denotes the concentration at which the effect is half-maximal. A word on the IC50: it is the point on the concentration scale where inhibition reaches its midpoint. Lower therefore signals inhibition by little substance. On to `O=C(O)c1ccc(CSc2ccc([N+](=O)[O-])cc2)cc1`, for which the EC50 was over 89.1 µM and the IC50 was determined as 72.4 µM.

Regarding `CCCCCCCCCCCCOCC1(COCCCCCCCCCCCC)COC(c2ccc(N)cc2)OC1`, the EC50 is over 200 µM and the IC50 was over 200 µM. In the case of `CC(C)=CCOc1cc(O)c2c(O)c3c(cc2c1)CC(C)(C)CC3=O`, the EC50 was over 100 µM and the IC50 stood at 7.08 µM. Taken in the same sequence, the figures for `COC(=O)CCCc1ccc2c(c1)CC1(C2)Cc2cc3c(cc2C1)CCCC3` were over 200 µM and 81.3 µM. For `Cc1cn(C2CC(Br)=NO2)c(=O)[nH]c1=O` (stereo not drawn) the same measures were over 200 µM and 34.7 µM. For `CCOC(=O)c1c(NC(=O)Nc2ccccc2)c(C(N)=O)c2n1CCCCC2` the same measures were over 100 µM and over 100 µM. Take `CC1=C(C(=O)NCc2ccccc2)C(c2ccc(C3C(C(=O)NCc4ccccc4)=C(C)NC(C)=C3C(=O)NCc3ccccc3)cc2)C(C(=O)NCc2ccccc2)=C(C)N1`: the EC50 is over 12 µM and the IC50 was 7.94 µM. Take `COC(=O)C1CC2(C)C=CC1N(C(=O)OCc1ccccc1)C2` (stereo not drawn): the EC50 is 63.1 µM and the IC50 amounted to 102 µM. For `CCCCCC(/C=N/Nc1ccccc1)C(O)(C(F)(F)F)C(F)(F)F` (stereo not drawn) the same measures were over 200 µM and 105 µM. With `CC(=O)OCC1OC(n2c(S)c(C#N)c(-c3ccccc3)c(C#N)c2=O)C(OC(C)=O)C(OC(C)=O)C1OC(C)=O` (stereo not drawn), the EC50 was over 200 µM; the half-maximal inhibitory concentration (IC50) is > 200 µM and 21.9 µM. With `COc1cc(/C=C2\C(=O)N(c3cccc([N+](=O)[O-])c3)C(c3ccccc3)S2(=O)=O)cc(OC)c1OC` (stereo not drawn), the outcome was inactive. With `O=C(Nc1cc2c(oc1=O)CCCCC2)c1cnccn1`, the EC50 was over 100 µM and the IC50 was over 100 µM. As to `Cc1nc2c(ncn2CCO)c(=O)[nH]1`, the EC50 is over 200 µM and the IC50 was over 200 µM.

Consider `N#CC(=C1CCN(CCCC(=O)c2ccc(F)cc2)CC1)c1ccccc1`, for which the EC50 is over 200 µM and the IC50 was over 200 µM. Regarding `Cc1ccc2ccc3c(=O)cc(C)[nH]c3c2n1`, the EC50 was 9.77 µM and the IC50 amounted to 32.4 µM. Turning to `COC(=O)/C=C1\C(CO[Si](C)(C)C(C)(C)C)OC(n2cc(C)c(=O)n(C)c2=O)C1O[Si](C)(C)C(C)(C)C` (stereo not drawn), the EC50 was over 200 µM and the IC50 turned out to be 20.9 µM. Consider `COc1nc2c(c(O)c(C)c(=O)n2OC2OC(COC(C)=O)C(OC(C)=O)C(OC(C)=O)C2OC(C)=O)c(=O)n1C` (stereo not drawn), for which the EC50 was over 61.7 µM and the IC50 was over 61.7 µM.

Turning to `COc1ccc(N2C(=O)C3c4[nH]c5ccccc5c4C4CC(C)(C)CC(C)(C)C4C3C2=O)cc1` (stereo not drawn), the EC50 is over 4.37 µM and the IC50 is over 4.37 µM.

On to `C=C1C(=O)OC2CC(C)C3CC(OC)OC(OC)C3(C)CC12` (stereo not drawn), for which the EC50 was over 589 µM and the IC50 stood at 3.72 µM. As for `Cc1cc(NC(=O)c2ccc(N=Nc3cc(S(=O)(=O)O)c4ccccc4c3O)cc2)ccc1N=Nc1ccc2cc(S(=O)(=O)O)cc(S(=O)(=O)O)c2c1`, the result was active. As to `Cc1nn(C(=O)Cc2ccccc2)c2c1C(c1ccc(/C=C/c3ccccc3)cc1)SC(N)=N2` (stereo not drawn), the EC50 is 148 µM and the IC50 was over 200 µM. Taken in the same sequence, the figures for `O=C(O)C(=O)CC(=O)c1ccc(Cl)cc1` were over 200 µM and over 200 µM.

In the case of `COc1cccc2c1[C@H]1OC(=O)NC1CCCCC2` (stereo partly drawn), the EC50 was over 200 µM and the IC50 is over 200 µM. As to `CC(C)n1c(=O)[nH]n(-c2ccccc2)c1=O`, the EC50 was over 200 µM and the IC50 was over 200 µM. With `COC(=O)[C@]1(C)CCC[C@]2(C)C3CC4OOC3(C=C4C(C)C)CCC21` (stereo partly drawn), the EC50 is over 251 µM and the IC50 is 11.5 µM. `CNC(=O)C1CCC(=O)N1CN(C(C)=O)c1ccccc1` (stereo not drawn): the EC50 was over 200 µM and the IC50 is over 200 µM. On to `CC(=O)NC1(C)C2CCC3(C)N=C(C)C1CC3C2` (stereo not drawn), for which the result was inactive. For the molecule `O=C(Cn1c(=O)oc2ccc(C(=O)c3ccccc3Cl)cc21)c1ccc([N+](=O)[O-])cc1`, the EC50 is over 200 µM and the IC50 was found to be 17 µM. `CCSc1nnc(-c2ccccc2)nc1Cc1ccc(OC)cc1`: the EC50 was over 14.8 µM and the IC50 is over 14.8 µM. As to `COc1ccc(NC(=O)C(=O)C(CC2C(=O)NC(=S)NC2=O)C(=O)c2ccc3ccccc3c2)c([N+](=O)[O-])c1` (stereo not drawn), the EC50 is over 123 µM and the IC50 was over 123 µM.

As to `O=C(NN1C(=O)c2ccccc2C1=O)c1ccccc1Nc1ccccc1C(=O)NN1C(=O)c2ccccc2C1=O`, the EC50 was over 200 µM and the IC50 was over 200 µM. As to `O=C(Nc1ccc(C2=NCCN2)cc1)c1cc(C(=O)Nc2ccc(C3=NCCN3)cc2)ncn1`, the EC50 was 12.3 µM and the IC50 was 61.7 µM.

`CC(=O)Nc1cc2c(cc1O)CC[C@@H]1[C@@H]2CC[C@]2(C)[C@@H](O)CC[C@@H]12`: the EC50 was over 200 µM and the IC50 came to 20.9 µM. Consider `COc1ccc(Cl)cc1NC(=O)c1ccco1`, for which the EC50 was over 200 µM and the IC50 is over 200 µM. As for `O=C1CC(c2ccco2)C2(C(=O)CCCC2=O)C(c2ccco2)C1` (stereo not drawn), the EC50 is over 100 µM and the IC50 was over 100 µM.

As for `CS(=O)(=O)N/N=C/CN1C(=O)c2ccccc2C1=O`, the EC50 is over 891 µM and the IC50 was over 891 µM. Take `Cn1c(=O)[nH]c(N2CCOCC2)c(C#N)c1=S`: the EC50 was over 200 µM and the IC50 is over 200 µM. `COc1c(C)c(C/C=C(\C)CCCCO[Si](c2ccccc2)(c2ccccc2)C(C)(C)C)c(OC)c(OC)c1OC`: the EC50 was over 200 µM and the IC50 was 93.3 µM. Take `O=c1c2cc([N+](=O)[O-])cnc2sn1-c1ccc([N+](=O)[O-])cc1`: the EC50 was over 200 µM and the IC50 was 63.1 µM. For `COc1cc2c(cc1OC)C(=O)/C(=C/c1cc(OC)c(OC)c(OC)c1)C2`, the EC50 is over 200 µM and the IC50 is 162 µM. With `CCCCCCCC/C=C/CCCCCCCC1CC(O)C(=O)O1` (stereo not drawn), the EC50 was over 200 µM and the IC50 came to 191 µM. Consider `COc1ccc(/C(=C\c2cc(OC)c(OC)cc2[N+](=O)[O-])C(=O)O)cc1`, for which the outcome was inactive. The same measure, in the same setting: the value for `C1CCN(c2nsc(N3CCCCC3)n2)CC1` was “inactive”; that for `CC12CCC3(OCCO3)C(OC(=O)c3ccccc3)=C1CCC21OCCO1` (stereo not drawn) was “inactive”. For `COc1cc(C(C)O)c[n+](CCC2CNc3ccccc32)c1` (stereo not drawn), the EC50 was over 219 µM and the IC50 was 195 µM. For `CCOC(=O)NC(Nc1cccc(F)c1)(C(F)(F)F)C(F)(F)F` the same measures were over 200 µM and over 200 µM.

Turning to `CC(c1ccccc1)N1CC(C)(c2ccccc2)N(O)C(c2ccccc2)C1C` (stereo not drawn), the EC50 is over 18.6 µM and the IC50 was over 18.6 µM. Regarding `CN1OC(CO)CC12C1CC3CC(C1)CC2C3` (stereo not drawn), the EC50 was over 1050 µM and the IC50 was found to be 537 µM. Taken in the same sequence, the figures for `Cc1csc(/N=C\c2c(O)c3ccccc3oc2=O)n1` were over 200 µM and 36.3 µM. For `Cc1nc2sccn2c1C(=O)NN` the same measures were over 1260 µM and 912 µM.

As to `COC(=O)/C=C/c1cc2c(cc1-c1c(C(=O)O)cc(OC)c(OC)c1OC)OCO2`, the EC50 is over 603 µM and the IC50 was over 603 µM. `COc1ccc2c(c1)OC[C@@H]1c3cc(NC(=O)c4ccccc4)c(OCc4ccccc4)cc3N(S(=O)(=O)c3ccccc3)[C@H]21`: the EC50 is over 200 µM and the IC50 was over 200 µM. Turning to `CCOC(=O)CC1=CSC2=NCCN12`, the outcome was inactive. With `CCCCCCCSCC(O)COC(c1ccccc1)(c1ccccc1)c1ccccc1` (stereo not drawn), the EC50 is over 200 µM and the IC50 came to 30.2 µM. In the case of `N#Cc1sc2nc3c(c(-c4ccccc4)c2c1N)CCCC3`, the outcome was inactive.

As to `CC(C)C12C=C3CCC4C(C)(C(=O)O)CCCC4(C)C3(CC1)OO2` (stereo not drawn), the EC50 was over 741 µM and the IC50 stood at 162 µM.

For the molecule `C=C(C)[C@@H]1CC[C@]2(COC(=O)CC(C)(CC)CC(=O)O)CC[C@]3(C)[C@H](CC[C@@H]4[C@@]5(C)CC[C@H](OC(=O)CC(C)(CC)CC(=O)O)C(C)(C)[C@@H]5CC[C@]43C)[C@@H]12` (stereo partly drawn), the EC50 was over 200 µM and the IC50 came to 9.55 µM. For the molecule `Cc1c(C2(c3cc(C(C)C)c(O)c(CN(CC(=O)O)CC(=O)O)c3C)OS(=O)(=O)c3ccccc32)cc(C(C)C)c(O)c1CN(CC(=O)O)CC(=O)O`, the EC50 is over 100 µM and the IC50 was over 100 µM. With `Cc1ccc(C(=O)/C=C/c2ccccc2)s1`, the EC50 is over 200 µM and the IC50 worked out at 10.7 µM.

On to `CC(O)C1NC(=O)C(CCCCN)NC(=O)C(Cc2c[nH]c3ccccc23)NC(=O)C(Cc2ccccc2)NC(=O)[C@H]2CCC[C@H]2NC(=O)C(Cc2ccccc2)NC1=O` (stereo partly drawn) (cyclo([X15][ξF][ξW][ξK][ξT][ξF])), for which the EC50 is over 200 µM and the IC50 was over 200 µM. Take `CC1=Nc2ccccc2N=C(C)C1`: the EC50 was over 200 µM and the IC50 was over 200 µM. In the case of `CC1CC/C(=C\c2ccc(F)cc2)C2=C1C(c1ccc(F)cc1)n1c(s/c(=C/c3cccc(Br)c3)c1=O)=N2` (stereo not drawn), the result was inactive. Regarding `CCOC1OCN(C)CC1(C)C` (stereo not drawn), the EC50 is over 1450 µM and the IC50 came out at 79.4 µM. Taken in the same sequence, the figures for `COc1ccc2nc3ccccc3c(NCCCCCN(CCCl)CCCl)c2c1` were over 245 µM and 0.282 µM. Regarding `CN(C)CC1C2C=CC(C3CC23)C1CN(C)C` (stereo not drawn), the outcome was inactive. As for `COc1cc2c(cc1-c1coc3cc(OCC=C(C)C)ccc3c1=O)OCO2`, the EC50 was over 200 µM and the IC50 was found to be 7.08 µM. For `O=c1c2cc3c(=O)n(O)c(=O)c3cc2c(=O)n1O` the same measures were over 200 µM and over 200 µM. Turning to `COc1ccc2c(-c3ccc(O)cc3)c(Oc3ccc(Cl)cc3)c(=O)oc2c1`, the EC50 was over 200 µM and the IC50 is 19.1 µM. As to `O=C(/N=C/c1c(O)c2ccccc2oc1=O)NC1CCCCC1`, the EC50 was over 41.7 µM and the IC50 is over 41.7 µM.
